Test results reported in patent US20240016773A1, “COMPOSITIONS AND METHODS FOR DIAGNOSIS AND TREATMENT OF CONDITIONS RELATED TO AGING” (EPITRACKER, INC., priority 2018, published 2024).

Experiments:
[1] = system: Primary dermal fibroblasts stimulated with IL-1β, TNFα, IFNγ, EGF, bFGF, and PDGF-BB; experiment: Third cell-based system: fibrosis and cell proliferation; set-up: species or system human
Protocol: (§1) This study examined the impact of synthetic pentadecanoic acid (C15:0) at four concentrations (740 nm and 2.2, 6.7, and 20 μM) on three primary human cell-based activity systems that were exposed to agents that mimicked allergic, thrombotic, and fibrotic disease states. In general, protein-based biomarkers in these systems were measured and compared with controls. Pentadecanoic acid was considered ‘active’ when 2 or more consecutive concentrations changed a given biomarker in the same direction relative to vehicle controls, were outside of the significance envelope of internal controls, and had at least one concentration with an effect size greater than 20% (log 10 ratio >0.1).
The third cell-based system recapitulated fibrosis and cell proliferation. Primary dermal fibroblasts were stimulated with IL-1β, TNFα, IFNγ, EGF, bFGF, and PDGF-BB and incubated with pentadecanoic acid for 24 hours. In addition to controls that were not treated with pentadecanoic acid, a negative, non-stimulated system was also included. Plasminogen activator inhibitor-1 (PAI-1), Collagen-I and fibroblast proliferation (at 72 hours) in this system were measured and compared with controls.

[2] = system: CD19+ B cells and peripheral blood mononuclear cells stimulated with α-IgM and TCR ligands; experiment: First cell-based system: T cell-dependent activation of B cells (allergy); set-up: species or system human
Protocol: as §1
The first cell-based system recapitulated T cell-dependent activation of B cells that occurs in germinal centers to mimic allergy disease states. CD19^+ B cells and peripheral blood mononuclear cells were stimulated with α-IgM and TCR ligands and incubated with pentadecanoic acid for 168 hours. In addition to controls that were not treated with pentadecanoic acid, a negative, non-stimulated system was also included. Secreted IgG was measured and compared with controls.

[3] = system: Primary endothelial cells stimulated with IL-1β, TNF-α, and IFNγ; experiment: Second cell-based system: Th1 inflammatory and prothrombotic environment; set-up: species or system human
Protocol: as §1
The second cell-based system recapitulated a Th1 inflammatory and prothrombotic environment. Primary endothelial cells were stimulated with IL-1β, TNF-α, and IFNγ and incubated with pentadecanoic acid for 24 hours. In addition to controls that were not treated with pentadecanoic acid, a negative, non-stimulated system was also included. Urokinase plasminogen activator receptor (uPAR) activation in this system was measured and compared with controls.

[4] = system: twelve different human primary cell systems mimicking various disease states; experiment: BioMAP Diversity PLUS panel, twelve human primary cell systems (summary by disease); format: cell-based; set-up: key: x: Significantly reduced cell-based biomarkers relevant to specific diseases and conditions
Excerpt: As a proof of concept, 14 compounds were selected from our compound library based on predicted efficacy in lowering inflammation in dolphins. Pure synthetic forms of these compounds were screened for cell-based activities (relevant to multiple aging-associated diseases and diseases that may impact longevity) using twelve different human primary cell systems mimicking various disease states (TABLE 4—description of primary human cell systems used to screen selected compounds in library).
The Diversity PLUS panel allows test agent characterization in an unbiased way across a broad set of systems modeling various human disease states. These systems are designed to model complex human tissue and disease biology of the vasculature, skin, lung, and inflammatory tissues. Quantitative measurements of 148 biomarker activities across this broad panel, along with comparative analysis of biological activities from known bioactive agents, were used to predict and compare the efficacy and function of each selected compound at four concentrations (740 nm and 2.2, 6.7 and 20 μM).
BioMAP systems are constructed with one or more primary cell types from healthy human donors, with stimuli (such as cytokines or growth factors) added to capture relevant signaling networks that naturally occur in human tissue or pathological conditions. Vascular biology is modeled in both a Th1 (3C system) and a Th2 (4H system) inflammatory environment, as well as in a Th1 inflammatory state specific to arterial smooth muscle cells (CASM3C system). Additional systems recapitulate aspects of the systemic immune response including monocyte-driven Th1 inflammation (LPS system) or T cell stimulation (SAg system), chronic Th1 inflammation driven by macrophage activation (lMphg system) and the T cell-dependent activation of B cells that occurs in germinal centers (BT system). The BE3C system (Th1) and the BF4T system (Th2) represent airway inflammation of the lung, while the MyoF system models myofibroblast-lung tissue remodeling. Lastly, skin biology is addressed in the KF3CT system modeling Th1 cutaneous inflammation and the HDF3CGF system modeling wound healing.
Each test agent generates a signature BioMAP profile that is created from the changes in protein biomarker readouts within individual system environments. Biomarker readouts (7-17 per system) are selected for therapeutic and biological relevance, are predictive for disease outcomes or specific drug effects and are validated using agents with known mechanism of action (MoA). Each readout is measured quantitatively by immune-based methods that detect protein (e.g., ELISA) or functional assays that measure proliferation and viability. BioMAP readouts are diverse and include cell surface receptors, cytokines, chemokines, matrix molecules and enzymes. In total, the Diversity PLUS panel contains 148 biomarker readouts that capture biological changes that occur within the physiological context of the particular BioMAP system. Specific BioMAP activities have been correlated to in vivo biology, and multiparameter BioMAP profiles have been used to distinguish compounds based on MoA and target selectivity across diverse physiological systems.
Activated BioMAP systems were incubated with each compound for 24 to 72 hours. Protein-based biomarkers from activated cell systems were measured and compared with non-treated control systems.

[5] = 24 hours incubation, 6.7 μM and 20 μM bioactive, vs controls
[6] = all four concentrations (740 nm and 2.2, 6.7, and 20 μM)

For `CCCCCCCCCCCCCCC(=O)O` [Pentadecanoic acid, pentadecanoic acid], the “Collagen-I (FIG. 4)” value [1, 5] was “decreases”, the “PAI-1 (FIG. 4)” value [1, 5] was “decreases” and the “72-hour fibroblast proliferation (FIG. 4)” value ([1]; 72 hours, 6.7 μM and 20 μM bioactive, vs controls) was “decreases”. The Cytotoxicity [1, 6] was “non-cytotoxic”, the “Secreted IgG (FIG. 2)” value ([2]; 168 hours incubation, 6.7 μM and 20 μM bioactive, vs controls) was “dose-dependent decreases” and the Cytotoxicity [2, 6] was “non-cytotoxic”. The “uPAR (FIG. 3)” value [3, 5] was “increases”, the Cytotoxicity [3, 6] was “non-cytotoxic” and the “Significantly reduced cell-based biomarkers relevant to: Allergy” value ([4]; Table 6) was “x”. The “Significantly reduced cell-based biomarkers relevant to: Asthma” value ([4]; Table 6) was “x”, the “Significantly reduced cell-based biomarkers relevant to: Autoimmunity” value ([4]; Table 6) was “x” and the “Significantly reduced cell-based biomarkers relevant to: Hematological oncology” value ([4]; Table 6) was “x”. The “Significantly reduced cell-based biomarkers relevant to: SLE” value ([4]; Table 6) was “x”, the “Significantly reduced cell-based biomarkers relevant to: T-cell dependent B cell proliferation” value ([4]; Table 6) was “x” and the “Significantly reduced cell-based biomarkers relevant to: Chronic inflammation” value ([4]; Table 7) was “x”. The “Significantly reduced cell-based biomarkers relevant to: Organ transplantation” value ([4]; Table 7) was “x”, the “Significantly reduced cell-based biomarkers relevant to: Psoriasis” value ([4]; Table 7) was “x” and the “Significantly reduced cell-based biomarkers relevant to: Rheumatoid arthritis” value ([4]; Table 7) was “x”. The “Significantly reduced cell-based biomarkers relevant to: Thl type inflammation” value ([4]; Table 7) was “x”, the “Significantly reduced cell-based biomarkers relevant to: Crohn's disease” value ([4]; Table 8) was “x” and the “Significantly reduced cell-based biomarkers relevant to: Fibrosis” value ([4]; Table 8) was “x”. For the same compound, the “Significantly reduced cell-based biomarkers relevant to: Hematological oncology” value ([4]; Table 8) was “x” and the “Significantly reduced cell-based biomarkers relevant to: Stromal biology in tumors” value ([4]; Table 8) was “x”.
